Assay results as given in ChEMBL document CHEMBL1909046, “DrugMatrix in vitro pharmacology data”.
pIC50, pKi: −log10 of the molar value.

Tests used:
B2 bradykinin receptor = target: T1, B2 bradykinin receptor (Homo sapiens, UniProt P30411); assay type: cell membranes, Membrane; settings: chem-1; also: in other assays of this panel Not Active means under 50% inhibition at 10 µM
T1 sequence (P30411 whole entry): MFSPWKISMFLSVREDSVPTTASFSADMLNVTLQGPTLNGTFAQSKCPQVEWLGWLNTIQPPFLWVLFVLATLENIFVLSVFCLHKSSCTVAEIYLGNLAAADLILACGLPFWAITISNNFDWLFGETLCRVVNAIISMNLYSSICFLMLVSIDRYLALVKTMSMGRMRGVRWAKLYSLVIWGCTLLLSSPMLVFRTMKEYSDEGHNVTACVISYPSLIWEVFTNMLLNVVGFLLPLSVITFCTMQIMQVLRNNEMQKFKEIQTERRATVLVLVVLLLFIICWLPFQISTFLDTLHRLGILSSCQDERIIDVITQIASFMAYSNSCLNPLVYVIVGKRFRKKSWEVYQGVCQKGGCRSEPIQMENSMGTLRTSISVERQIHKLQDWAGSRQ

[1] = target: Receptor tyrosine-protein kinase erbB-2 (Homo sapiens, UniProt P04626); assay: biochemical; assay type: cell-based, Insect cells; settings: insect cells;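 also: inhibition of HER2 kinase enzyme activity, measured with Poly(Glu:Tyr) as the phosphorylation substrate; in other assays of this panel Not Active means under 50% inhibition at 10 µM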
[2] = DRUGMATRIX: Glutamate, AMPA radioligand binding (ligand: [3H] AMPA); assay type: cell membranes, Rattus norvegicus, Wistar, Cerebral cortex, Membrane; settings: Not Active = under 50% inhibition at 10 µM
Mu-type opioid receptor = Mu-type opioid receptor (Homo sapiens, UniProt P35372); assay: DRUGMATRIX: Opiate mu (OP3, MOP) radioligand binding (ligand: [3H] Diprenorphine); assay type: cell membranes, CHO-K1, Membrane; settings: cho-k1; Not Active = under 50% inhibition at 10 µM
[3] = DRUGMATRIX: Calcium Channel Type L, Dihydropyridine radioligand binding (ligand: [3H] Nitrendipine); assay type: cell membranes, Rattus norvegicus, Wistar, Cerebral cortex, Membrane; settings: Not Active = under 50% inhibition at 10 µM
[4] = target: T2, Type-2 angiotensin II receptor (Homo sapiens, UniProt P50052); assay type: cell-based; settings: cho-k1; also: in other assays of this panel Not Active means under 50% inhibition at 10 µM
T2 sequence (P50052 whole entry): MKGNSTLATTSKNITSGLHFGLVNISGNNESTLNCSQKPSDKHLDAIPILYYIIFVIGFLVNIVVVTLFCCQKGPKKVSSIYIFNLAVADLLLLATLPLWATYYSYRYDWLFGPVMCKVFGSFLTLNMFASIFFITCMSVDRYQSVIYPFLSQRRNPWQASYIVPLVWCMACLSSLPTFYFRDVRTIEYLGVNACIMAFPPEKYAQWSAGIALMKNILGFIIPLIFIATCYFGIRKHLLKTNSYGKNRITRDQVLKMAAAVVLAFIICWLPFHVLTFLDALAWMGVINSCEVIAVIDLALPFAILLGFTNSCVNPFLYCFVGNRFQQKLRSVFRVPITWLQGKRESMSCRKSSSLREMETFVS

[5] = target: Beta-3 adrenergic receptor (Homo sapiens, UniProt P13945); assay: DRUGMATRIX: Adrenergic beta3 radioligand binding (ligand: [125I] Cyanopindolol); assay type: cell membranes, HEK293, Membrane; settings: hek293; Not Active = under 50% inhibition at 10 µM
Adenosine receptor A3 = target: T3, Adenosine receptor A3 (Homo sapiens, UniProt P0DMS8); assay type: cell membranes, CHO-K1, Membrane; settings: cho-k1;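 also: radioligand binding assay with AB-MECA serving as the labeled ligand; in other assays of this panel Not Active means under 50% inhibition at 10 µM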
T3 sequence (P0DMS8 whole entry): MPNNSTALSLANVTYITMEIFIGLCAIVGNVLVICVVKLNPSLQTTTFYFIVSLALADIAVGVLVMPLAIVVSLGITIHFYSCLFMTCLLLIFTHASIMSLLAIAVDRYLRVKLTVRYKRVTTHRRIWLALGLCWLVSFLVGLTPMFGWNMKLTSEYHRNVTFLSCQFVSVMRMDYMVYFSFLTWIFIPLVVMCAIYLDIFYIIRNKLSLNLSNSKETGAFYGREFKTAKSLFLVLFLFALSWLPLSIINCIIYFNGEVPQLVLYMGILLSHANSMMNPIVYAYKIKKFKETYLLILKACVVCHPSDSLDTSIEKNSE

[6] = target: T4, C-X-C chemokine receptor type 1 (Homo sapiens, UniProt P25024); also: in other assays of this panel Not Active means under 50% inhibition at 10 µM
T4 sequence (P25024 whole entry): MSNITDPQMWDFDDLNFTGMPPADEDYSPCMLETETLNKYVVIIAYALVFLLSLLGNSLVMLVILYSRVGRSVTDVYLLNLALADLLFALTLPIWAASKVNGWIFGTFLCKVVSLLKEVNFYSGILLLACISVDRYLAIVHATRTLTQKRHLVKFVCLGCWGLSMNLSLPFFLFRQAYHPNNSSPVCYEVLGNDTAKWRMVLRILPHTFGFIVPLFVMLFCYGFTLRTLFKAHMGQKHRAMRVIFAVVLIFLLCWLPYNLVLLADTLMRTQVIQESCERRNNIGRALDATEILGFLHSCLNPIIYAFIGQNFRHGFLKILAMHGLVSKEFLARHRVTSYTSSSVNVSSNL

Vasopressin V1a receptor = Vasopressin V1a receptor (Homo sapiens, UniProt P37288); assay type: cell membranes, Membrane; settings: hek293; also: in other assays of this panel Not Active means under 50% inhibition at 10 µM
[7] = DRUGMATRIX: Phosphodiesterase PDE3 enzyme inhibition (substrate: [3H]cAMP + cAMP); assay type: tissue-based, Homo sapiens; settings: platelet; Not Active = under 50% inhibition at 10 µM
[8] = DRUGMATRIX: Phorbol Ester radioligand binding (ligand: [3H] PDBu); assay type: cell membranes, Mus musculus, ICR, Brain, Membrane; settings: Not Active = under 50% inhibition at 10 µM
Carbonic anhydrase 2 = Carbonic anhydrase 2 (Homo sapiens, UniProt P00918); assay: DRUGMATRIX: Carbonic Anhydrase II enzyme inhibition (substrate: 4-Nitrophenyl acetate (4-NPA)); assay type: tissue-based, Erythrocyte; settings: erythrocyte; Not Active = under 50% inhibition at 10 µM
Caspase-1 = target: T5, Caspase-1 (Homo sapiens, UniProt P29466); parameters: species or system Escherichia coli
T5 sequence (P29466 whole entry): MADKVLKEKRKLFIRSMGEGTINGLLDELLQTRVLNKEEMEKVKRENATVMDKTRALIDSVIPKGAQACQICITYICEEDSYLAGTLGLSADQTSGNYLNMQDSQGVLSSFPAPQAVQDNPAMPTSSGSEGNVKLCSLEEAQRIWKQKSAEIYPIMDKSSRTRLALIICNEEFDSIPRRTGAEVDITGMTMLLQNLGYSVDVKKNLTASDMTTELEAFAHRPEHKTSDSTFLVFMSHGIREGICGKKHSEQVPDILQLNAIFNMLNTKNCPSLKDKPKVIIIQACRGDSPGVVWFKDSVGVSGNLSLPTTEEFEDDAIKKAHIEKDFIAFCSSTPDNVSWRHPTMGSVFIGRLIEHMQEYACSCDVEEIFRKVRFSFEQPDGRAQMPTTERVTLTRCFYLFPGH

[9] = DRUGMATRIX: Serotonin (5-Hydroxytryptamine) 5-HT3 radioligand binding (ligand: [3H] GR-65630); assay type: cell membranes, Membrane; settings: hek293, Not Active = under 50% inhibition at 10 µM
[10] = target: Mitogen-activated protein kinase 1 (Homo sapiens, UniProt P28482); assay: DRUGMATRIX: Protein Serine/Threonine Kinase, ERK2 enzyme inhibition (substrate: Myelin Basic Protein); parameters: species or system Escherichia coli; settings: Not Active = under 50% inhibition at 10 µM
Sequence of Mitogen-activated protein kinase 1 (P28482 whole entry): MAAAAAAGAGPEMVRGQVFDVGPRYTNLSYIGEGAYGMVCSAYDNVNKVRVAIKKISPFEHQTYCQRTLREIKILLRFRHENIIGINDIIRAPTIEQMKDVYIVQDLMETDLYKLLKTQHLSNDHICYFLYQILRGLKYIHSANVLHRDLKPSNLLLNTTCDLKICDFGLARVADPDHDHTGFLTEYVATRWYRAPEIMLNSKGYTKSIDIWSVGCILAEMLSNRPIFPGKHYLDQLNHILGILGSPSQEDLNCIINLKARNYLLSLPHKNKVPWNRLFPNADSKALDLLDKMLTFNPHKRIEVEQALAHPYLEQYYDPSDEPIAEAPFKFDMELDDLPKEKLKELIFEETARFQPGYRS

Sequence of Mu-type opioid receptor (P35372 whole entry): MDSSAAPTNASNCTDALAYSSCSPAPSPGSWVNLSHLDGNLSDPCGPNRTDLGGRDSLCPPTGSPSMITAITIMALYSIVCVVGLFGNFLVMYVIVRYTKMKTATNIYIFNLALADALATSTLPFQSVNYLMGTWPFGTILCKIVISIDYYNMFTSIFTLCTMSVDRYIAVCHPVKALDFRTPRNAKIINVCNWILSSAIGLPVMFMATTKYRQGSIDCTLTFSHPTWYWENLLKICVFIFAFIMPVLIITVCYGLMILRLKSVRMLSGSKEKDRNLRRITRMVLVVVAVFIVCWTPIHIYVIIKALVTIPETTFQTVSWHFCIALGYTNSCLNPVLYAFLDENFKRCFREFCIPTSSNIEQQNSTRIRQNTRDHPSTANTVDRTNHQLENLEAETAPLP
Sequence of Beta-3 adrenergic receptor (P13945 whole entry): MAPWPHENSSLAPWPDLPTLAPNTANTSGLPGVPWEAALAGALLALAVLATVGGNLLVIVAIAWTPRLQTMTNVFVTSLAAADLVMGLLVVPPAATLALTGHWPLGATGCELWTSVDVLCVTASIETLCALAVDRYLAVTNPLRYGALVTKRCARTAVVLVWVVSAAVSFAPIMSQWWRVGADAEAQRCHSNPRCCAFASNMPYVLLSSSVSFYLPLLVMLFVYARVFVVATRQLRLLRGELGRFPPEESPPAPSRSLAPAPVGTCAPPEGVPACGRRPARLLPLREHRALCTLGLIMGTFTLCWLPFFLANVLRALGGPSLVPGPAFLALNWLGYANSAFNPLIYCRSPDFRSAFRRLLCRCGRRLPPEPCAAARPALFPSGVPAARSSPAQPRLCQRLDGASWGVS
Sequence of Receptor tyrosine-protein kinase erbB-2 (P04626 whole entry): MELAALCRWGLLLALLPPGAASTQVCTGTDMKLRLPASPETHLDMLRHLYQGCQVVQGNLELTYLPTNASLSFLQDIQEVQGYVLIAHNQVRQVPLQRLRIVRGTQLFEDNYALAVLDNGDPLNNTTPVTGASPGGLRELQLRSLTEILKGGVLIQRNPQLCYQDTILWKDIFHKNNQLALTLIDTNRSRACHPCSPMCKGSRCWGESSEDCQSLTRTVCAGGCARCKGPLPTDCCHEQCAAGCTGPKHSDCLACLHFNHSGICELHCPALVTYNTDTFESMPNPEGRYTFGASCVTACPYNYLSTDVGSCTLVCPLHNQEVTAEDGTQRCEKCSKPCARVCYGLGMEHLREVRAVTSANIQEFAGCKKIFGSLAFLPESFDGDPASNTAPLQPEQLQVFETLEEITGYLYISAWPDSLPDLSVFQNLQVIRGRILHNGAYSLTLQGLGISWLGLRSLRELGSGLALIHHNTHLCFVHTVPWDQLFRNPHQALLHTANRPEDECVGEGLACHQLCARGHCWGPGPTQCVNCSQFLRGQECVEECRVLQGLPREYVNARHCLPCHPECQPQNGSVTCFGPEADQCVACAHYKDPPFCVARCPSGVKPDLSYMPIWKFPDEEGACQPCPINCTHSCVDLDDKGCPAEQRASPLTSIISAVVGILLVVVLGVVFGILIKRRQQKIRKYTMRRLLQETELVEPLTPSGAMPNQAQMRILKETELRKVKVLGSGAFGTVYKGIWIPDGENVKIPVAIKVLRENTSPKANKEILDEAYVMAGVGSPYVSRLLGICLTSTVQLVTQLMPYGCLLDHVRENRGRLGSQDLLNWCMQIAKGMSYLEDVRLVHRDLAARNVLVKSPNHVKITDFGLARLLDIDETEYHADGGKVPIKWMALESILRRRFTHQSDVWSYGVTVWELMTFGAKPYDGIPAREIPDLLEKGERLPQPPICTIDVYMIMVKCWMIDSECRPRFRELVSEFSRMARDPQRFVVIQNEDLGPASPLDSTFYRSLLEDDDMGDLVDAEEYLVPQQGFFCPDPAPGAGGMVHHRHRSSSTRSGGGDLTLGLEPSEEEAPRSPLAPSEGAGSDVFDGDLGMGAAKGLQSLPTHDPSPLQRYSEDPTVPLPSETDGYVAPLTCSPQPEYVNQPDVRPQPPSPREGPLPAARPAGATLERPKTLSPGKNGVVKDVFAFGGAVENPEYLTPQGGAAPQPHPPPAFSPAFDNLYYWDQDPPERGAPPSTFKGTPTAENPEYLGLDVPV
Sequence of Vasopressin V1a receptor (P37288 whole entry): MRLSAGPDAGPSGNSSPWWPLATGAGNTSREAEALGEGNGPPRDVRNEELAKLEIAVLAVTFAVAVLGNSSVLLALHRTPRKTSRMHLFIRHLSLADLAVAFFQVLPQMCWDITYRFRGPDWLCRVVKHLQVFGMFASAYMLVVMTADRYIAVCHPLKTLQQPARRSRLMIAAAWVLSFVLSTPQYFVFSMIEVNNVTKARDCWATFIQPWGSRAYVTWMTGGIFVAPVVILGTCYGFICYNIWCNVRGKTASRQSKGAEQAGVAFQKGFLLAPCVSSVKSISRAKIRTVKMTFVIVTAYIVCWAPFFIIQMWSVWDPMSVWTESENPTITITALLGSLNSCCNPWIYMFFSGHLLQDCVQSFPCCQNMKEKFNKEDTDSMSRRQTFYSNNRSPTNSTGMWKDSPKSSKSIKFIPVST

Row | SMILES | IC50 (B2 bradykinin receptor) | IC50 [1] | IC50 [2] | Ki [2] | IC50 (Mu-type opioid receptor) | IC50 [3] | Ki [3] | IC50 [4] | IC50 [5] | IC50 (Adenosine receptor A3) | IC50 [6] | IC50 (Vasopressin V1a receptor) | IC50 [7] | Ki [7] | IC50 [8] | Ki [8] | IC50 (Carbonic anhydrase 2) | IC50 (Caspase-1) | IC50 [9] | IC50 [10] | other results
1 | CC1CN(c2cc3c(cc2F)c(=O)c(C(=O)O)cn3-c2ccc(F)cc2F)CCN1 (configuration not stated) [TEMAFLOXACIN] | Not Active | Not Active | Not Active | Not Active | Not Active | Not Active | Not Active | Not Active | Not Active | Not Active | Not Active | Not Active | Not Active | Not Active | Not Active | Not Active | Not Active | Not Active | Not Active | Not Active | Ki [9]: Not Active
2 | CC(C)(C)NCC(O)c1cc(O)cc(O)c1 (configuration not stated) [TERBUTALINE] | Not Active | Not Active | Not Active | Not Active | Not Active | Not Active | Not Active | Not Active | Not Active | Not Active | Not Active | Not Active | Not Active | Not Active | Not Active | Not Active | Not Active | Not Active | Not Active | Not Active | Ki [9]: Not Active
3 | CN(C)[C@@H]1C(O)=C(C(N)=O)C(=O)[C@@]2(O)C(O)=C3C(=O)c4c(O)cccc4[C@@](C)(O)[C@H]3C[C@@H]12 [TETRACYCLINE] | Not Active | Not Active | Not Active | Not Active | Not Active | Not Active | Not Active | Not Active | Not Active | Not Active | Not Active | Not Active | Not Active | Not Active | Not Active | Not Active | Not Active | Not Active | Not Active | Not Active | Ki [9]: Not Active
4 | c1ccc2[nH]c(-c3cscn3)nc2c1 [THIABENDAZOLE] | Not Active | Not Active | Not Active | Not Active | Not Active | Not Active | Not Active | Not Active | Not Active | Not Active | Not Active | Not Active | Not Active | Not Active | Not Active | Not Active | Not Active | Not Active | Not Active | Not Active | Ki [9]: Not Active
5 | Cc1ccc(C(=O)C(C)CN2CCCCC2)cc1 (configuration not stated) [TOLPERISONE] | Not Active | Not Active | Not Active | Not Active | Not Active | Not Active | Not Active | Not Active | Not Active | Not Active | Not Active | Not Active | Not Active | Not Active | Not Active | Not Active | Not Active | Not Active | Not Active | Not Active | Ki [9]: Not Active
6 | NC(CO)(CO)CO [TROMETHAMINE] | Not Active | Not Active | Not Active | Not Active | Not Active | Not Active | Not Active | Not Active | Not Active | Not Active | Not Active | Not Active | Not Active | Not Active | Not Active | Not Active | Not Active | Not Active | Not Active | Not Active | Ki [9]: Not Active
7 | CN1[C@@H]2CC[C@H]1C[C@@H](OC(=O)c1c[nH]c3ccccc13)C2 [TROPISETRON] | Not Active | Not Active | Not Active | Not Active | Not Active | Not Active | Not Active | Not Active | Not Active | Not Active | Not Active | Not Active | Not Active | Not Active | Not Active | Not Active | Not Active | Not Active |  | Not Active | pIC50 ([9]; read-out: IC50): 8.17; pKi ([9]; read-out: Ki): 8.82
